Experimental data taken from paper PMC6297231 (Nature Communications, 2018).

Key:
L363 = assay: Cell viability assay; assay type: cell-based; settings: Homo sapiens, L-363, 24 h; L363 (MM); read-out: AZD5991 24h GI50
Description: Cells were plated at 3000 cells/well in 384-well white plates in corresponding cell growth media. […] Caspase-3/7 activation was subsequently determined using a Caspase-Glo 3/7 Reagent (Promega) and viability was assayed using the CellTiter-Glo Reagent (Promega) as described in manufacturer’s instructions. Dose–response curves for caspase-3/7 activation and viability were plotted and analyzed (including EC50 and GI50 determination) using GraphPad Prism.

5637 = assay: cells; settings: 6 h, read-out: AZD5991 6h EC50
How it was run: (§1)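 Cells were seeded at 3000 cells/well in their respective growth media and treated with compound. Caspase-3/7 activation was read by Caspase-Glo 3/7 luminescence and viability by CellTiter-Glo; EC50 and GI50 came from dose–response curves. Caspase activation is expressed relative to a cell-kill control set at 100%.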

A375 = assay: cells; settings: Homo sapiens, A-375, 6 h, read-out: AZD5991 6h EC50
How it was run: as §1

ARH77 = assay: cells; settings: Homo sapiens, ARH-77, 6 h, read-out: AZD5991 6h EC50
How it was run: as §1

BT549 = assay: cells; settings: Homo sapiens, BT-549, 6 h, read-out: AZD5991 6h EC50
How it was run: as §1

Colo205 = assay: cells; settings: Homo sapiens, COLO 205, 6 h, read-out: AZD5991 6h EC50
How it was run: as §1

EVSAT = assay: cells; settings: Homo sapiens, EVSA-T, 6 h, read-out: AZD5991 6h EC50
How it was run: as §1

GRANTA519 = assay: cells; settings: Homo sapiens, Granta-519, 6 h, read-out: AZD5991 6h EC50
How it was run: as §1

H1703 = assay: cells; settings: Homo sapiens, NCI-H1703, 6 h, read-out: AZD5991 6h EC50
How it was run: as §1

H196 = assay: cells; settings: NCI-H196, 6 h, read-out: AZD5991 6h EC50
How it was run: as §1

H2110 = assay: cells; settings: NCI-H2110, 6 h, read-out: AZD5991 6h EC50
How it was run: as §1

H2171 = assay: cells; settings: Homo sapiens, NCI-H2171, 6 h, read-out: AZD5991 6h EC50
How it was run: as §1

H2286 = assay: cells; settings: Homo sapiens, NCI-H2286, 6 h, read-out: AZD5991 6h EC50
How it was run: as §1

H446 = assay: cells; settings: Homo sapiens, NCI-H446, 6 h, read-out: AZD5991 6h EC50
How it was run: as §1

H526 = assay: cells; settings: Homo sapiens, NCI-H526, 6 h, read-out: AZD5991 6h EC50
How it was run: as §1

H647 = assay: cells; settings: Homo sapiens, NCI-H647, 6 h, read-out: AZD5991 6h EC50
How it was run: as §1

HBL1 = assay: cells; settings: HBL1, 6 h, read-out: AZD5991 6h EC50
How it was run: as §1

HCC827 = assay: cells; settings: Homo sapiens, HCC827, 6 h, read-out: AZD5991 6h EC50
How it was run: as §1

KMS34 = assay: cells; settings: KMS-34, 6 h, read-out: AZD5991 6h EC50
How it was run: as §1

LUDLU1 = assay: cells; settings: LUDLU-1, 6 h, read-out: AZD5991 6h EC50
How it was run: as §1

LnCAP = assay: cells; settings: Homo sapiens, 6 h, read-out: AZD5991 6h EC50
How it was run: as §1

MDAMB468 = assay: cells; settings: Homo sapiens, MDA-MB-468, 6 h, read-out: AZD5991 6h EC50
How it was run: as §1

MWCL1 = assay: cells; settings: 6 h, read-out: AZD5991 6h EC50
How it was run: as §1

NCI-H929 = assay: cells; settings: Homo sapiens, NCI-H929, 6 h, read-out: AZD5991 6h EC50
How it was run: as §1

OCILY10 = assay: cells; settings: Homo sapiens, OCI-Ly10, 6 h, read-out: AZD5991 6h EC50
How it was run: as §1

OCILY1 = assay: cells; settings: Homo sapiens, OCI-Ly1, 6 h, read-out: AZD5991 6h EC50
How it was run: as §1

OCILY3 = assay: cells; settings: Homo sapiens, OCI-Ly3, 6 h, read-out: AZD5991 6h EC50
How it was run: as §1

RCK8 = assay: cells; settings: Homo sapiens, RCK8, 6 h, read-out: AZD5991 6h EC50
How it was run: as §1

SKLU1 = assay: cells; settings: Homo sapiens, SK-LU-1, 6 h, read-out: AZD5991 6h EC50
How it was run: as §1

Sudhl5 = assay: cells; settings: Homo sapiens, SU-DHL-5, 6 h, read-out: AZD5991 6h EC50
How it was run: as §1

THP-1 = assay: cells; settings: Homo sapiens, THP-1, 6 h, read-out: AZD5991 6h EC50
How it was run: as §1

U2OS = assay: cells; settings: Homo sapiens, 6 h, read-out: AZD5991 6h EC50
How it was run: as §1

VAL = assay: cells; settings: 6 h, read-out: AZD5991 6h EC50
How it was run: as §1

WSUNHL = assay: cells; settings: Homo sapiens, WSU-NHL, 6 h, read-out: AZD5991 6h EC50
How it was run: as §1

Cc1c2c(nn1C)CSCc1cc(n(C)n1)CSc1cc(c3ccccc3c1)OCCCc1c(C(=O)O)n(C)c3c-2c(Cl)ccc13 (atropisomer, axis not shown; (Ra)) [(Ra)-7]
GI50 (L363): 75 nM
EC50 5637: 107 nM
EC50 (A375): > 30000 nM
EC50 (ARH77): 23900 nM
EC50 (BT549): 1780 nM
EC50 (Colo205): 121 nM
EC50 (EVSAT): 160 nM
EC50 (GRANTA519): > 30000 nM
EC50 (H1703): 801 nM
EC50 (H196): > 30000 nM
EC50 (H2110): 226 nM
EC50 (H2171): 141 nM
EC50 (H2286): > 30000 nM
EC50 (H446): > 30000 nM
EC50 (H526): > 30000 nM
EC50 (H647): > 30000 nM
EC50 (HBL1): 25800 nM
EC50 (HCC827): > 30000 nM
EC50 (KMS34): 240 nM
EC50 (LUDLU1): 1890 nM
EC50 (LnCAP): > 30000 nM
EC50 (MDAMB468): > 30000 nM
EC50 (MWCL1): 27700 nM
EC50 (NCI-H929): 60 nM
EC50 (OCILY10): 117 nM
EC50 (OCILY1): 547 nM
EC50 (OCILY3): > 30000 nM
EC50 (RCK8): > 30000 nM
EC50 (SKLU1): > 30000 nM
EC50 (Sudhl5): 19 nM
EC50 (THP-1): 125 nM
EC50 (U2OS): > 30000 nM
EC50 (VAL): 172 nM
EC50 (WSUNHL): 512 nM
